Measured values taken from patent US8017775B2, “1-2-dihydroquinoline derivative having glucocorticoid receptor binding activity” (Santen Pharmaceutical Co., Ltd., priority 2005, dated 2011).
One block for each molecule: values may come before it.

Biological target: T1, Recombinant human GR (Homo sapiens, UniProt P04150)
T1 construct: purchased Invitrogen P2816
T1 sequence (P04150 1-777): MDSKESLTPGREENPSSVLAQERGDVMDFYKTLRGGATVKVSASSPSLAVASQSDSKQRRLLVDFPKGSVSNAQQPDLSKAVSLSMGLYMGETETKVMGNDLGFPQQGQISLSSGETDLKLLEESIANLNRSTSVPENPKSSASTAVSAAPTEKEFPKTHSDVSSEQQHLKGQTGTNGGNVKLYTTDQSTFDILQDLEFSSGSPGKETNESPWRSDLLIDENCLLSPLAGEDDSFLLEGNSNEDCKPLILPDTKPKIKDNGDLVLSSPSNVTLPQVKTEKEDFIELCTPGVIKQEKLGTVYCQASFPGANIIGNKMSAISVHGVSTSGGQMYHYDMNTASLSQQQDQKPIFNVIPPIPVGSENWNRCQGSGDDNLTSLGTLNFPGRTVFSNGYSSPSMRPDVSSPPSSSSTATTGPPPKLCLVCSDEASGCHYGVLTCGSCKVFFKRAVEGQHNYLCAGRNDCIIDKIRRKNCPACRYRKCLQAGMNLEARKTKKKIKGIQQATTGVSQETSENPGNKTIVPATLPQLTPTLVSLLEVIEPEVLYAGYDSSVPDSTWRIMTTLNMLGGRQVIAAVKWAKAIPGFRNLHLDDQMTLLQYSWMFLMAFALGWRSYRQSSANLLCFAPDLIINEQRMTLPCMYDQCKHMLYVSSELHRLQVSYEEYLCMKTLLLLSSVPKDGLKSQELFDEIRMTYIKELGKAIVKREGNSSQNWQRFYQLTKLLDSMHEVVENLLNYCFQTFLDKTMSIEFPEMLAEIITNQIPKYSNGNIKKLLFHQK
Test: GR competitor assay by fluorescence polarization (GR binding ratio)
Conditions: positive control 2 mM dexamethasone, a GR binding ratio of 100% or more is indicated by 100%
Method: 1. Evaluation Test for Binding Activity to Glucocorticoid Receptor (hereinafter referred to as “GR”)
In order to evaluate a binding activity to GR, a receptor competitor assay was carried out by a fluorescence polarization method. In the assay, a GR competitor assay kit (manufactured by Invitrogen, cat No. P2816) was used, and a procedure was carried out according to the protocol attached to the kit. Hereinafter, the specific method will be described.
GR screening buffer: A buffer containing 10 mM potassium phosphate (pH 7.4), 20 mM sodium molybdate (Na2MoO4), 0.1 mM ethylene diamine tetraacetic acid (EDTA), 5 mM dithiothreitol (DTT), 0.1 mM stabilizing peptide and 2% dimethylsulfoxide was prepared.
4×GS1 solution: Fluormone™ GS1, which is a fluorescent glucocorticoid ligand, was diluted with GR screening buffer, whereby a 4 nM solution was prepared.
4×GR solution: Recombinant human GR was diluted with GR screening buffer, whereby a 16 nM solution was prepared.
After a test compound was dissolved in dimethylsulfoxide, the resulting solution was diluted with GR screening buffer, whereby a 20 μM test compound solution was prepared.
1) The test compound solution was added in an amount of 25 μL or 10 μL into each well of a 96-well or 384-well plate, and then, 4×GS1 solution and 4×GR solution were added in an amount of 12.5 μL or 5 μL into each well, respectively.
2) The plate was incubated in a dark place at room temperature for 2 to 4 hours.
3) By using a multimode plate reader, Analyst™ HT (manufactured by LJL Biosystems), fluorescence polarization of each well was measured. As the blank, a well containing GR screening buffer in place of the test compound and 4×GS1 solution was used.
4) The same procedure as that in the above 1) to 3) was carried out except that GR screening buffer was used in place of the test compound solution, and the obtained result was taken as the negative control.
5) The same procedure as that in the above 1) to 3) was carried out except that 2 mM dexamethasone was used in place of the test compound solution, and the obtained result was taken as the positive control.
A GR binding ratio (%) was calculated from the following equation.
GR binding ratio (%)=100×[1−(fluorescence polarization of test compound solution−fluorescence polarization of positive control solution)/(fluorescence polarization of negative control solution−fluorescence polarization of positive control solution)]

Structure (SMILES): COc1cc(F)ccc1-c1ccc2c(c1CNc1ccccc1CCO)C(C)=CC(C)(C)N2 [Compound 6-77, 6-(4-Fluoro-2-methoxyphenyl)-5-[2-(2-hydroxyethyl)phenylaminomethyl)-2,2,4-trimethyl-1,2-dihydroquinoline]
- GR Binding ratio (%): ≥ 100%

Structure (SMILES): C=CCc1ccccc1OCc1c(-c2ccc(F)cc2OC)ccc2c1C(C)=CC(C)(C)N2 [Compound 3-74, 6-(4-Fluoro-2-methoxyphenyl)-5-(2-allylphenoxymethyl)-2,2,4-trimethyl-1,2-dihydroquinoline]
- GR Binding ratio (%): ≥ 100%

Structure (SMILES): COc1cc(O)ccc1-c1ccc2c(c1COc1cc(F)ccc1C)C(C)=CC(C)(C)N2 [Compound 5-3, 5-(5-Fluoro-2-methylphenoxymethyl)-6-(4-hydroxy-2-methoxyphenyl)-2,2,4-trimethyl-1,2-dihydroquinoline]
- GR Binding ratio (%): ≥ 100%

Structure (SMILES): COc1ccc(C)cc1OCc1c(-c2ccc(F)cc2OC)ccc2c1C(C)=CC(C)(C)N2 [Compound 3-59, 6-(4-Fluoro-2-methoxyphenyl)-5-(2-methoxy-5-methylphenoxymethyl)-2,2,4-trimethyl-1,2-dihydroquinoline]
- GR Binding ratio (%): ≥ 100%

Structure (SMILES): COc1cc(F)ccc1-c1ccc2c(c1COc1ccccc1CCO)C(C)=CC(C)(C)N2 [Compound 3-68, 6-(4-Fluoro-2-methoxyphenyl)-5-[2(2-hydroxyethyl)phenoxymethyl)-2,2,4-trimethyl-1,2-dihydroquinoline]
- GR Binding ratio (%): ≥ 100%

Structure (SMILES): COc1cc(F)ccc1-c1ccc2c(c1CNc1cccc(C)c1)C(C)=CC(C)(C)N2 [Compound 6-36, 6-(4-Fluoro-2-methoxyphenyl)-5-(3-methylphenylaminomethyl)-2,2,4-trimethyl-1,2-dihydroquinoline]
- GR Binding ratio (%): 98%

Structure (SMILES): COc1cc(F)ccc1-c1ccc2c(c1COc1cc(Cl)ccc1Cl)C(C)=CC(C)(C)N2 [Compound 3-85, 5-(2,5-Diclorophenoxymethyl)-6-(4-fluoro-2-methoxyphenyl)-2,2,4-trimethyl-1,2-dihydroquinoline]
- GR Binding ratio (%): 95%

Structure (SMILES): COc1cc(F)c(F)cc1-c1ccc2c(c1COc1ccccc1C)C(C)=CC(C)(C)N2 [Compound 3-45, 6-(4,5-Difluoro-2-methoxyphenyl)-5-(2-methylphenoxymethyl)-2,2,4-trimethyl-1,2-dihydroquinoline]
- GR Binding ratio (%): 98%

Structure (SMILES): COc1cc(F)ccc1-c1ccc2c(c1COc1cc(Cl)ccc1C)C(C)=CC(C)(C)N2 [Compound 3-56, 6-(4-Fluoro-2-methoxyphenyl)-5-(5-chloro-2-methylphenoxymethyl)-2,2,4-trimethyl-1,2-dihydroquinoline]
- GR Binding ratio (%): 98%

Structure (SMILES): COc1ccc(C(=O)OCc2c(-c3cc(F)ccc3OC)ccc3c2C(C)=CC(C)(C)N3)cc1 [Compound 12-75, 6-(5-Fluoro-2-methoxyphenyl)-5-(4-metoxybenzoyloxymethyl)-2,2,4-trimethyl-1,2-dihydroquinoline]
- GR Binding ratio (%): ≥ 100%

Structure (SMILES): COc1cc(F)ccc1-c1ccc2c(c1COC(=O)c1ccccc1C)C(C)=CC(C)(C)N2 [Compound 1-46, 6-(4-Fluoro-2-methoxyphenyl)-5-(2-methylbenzoyloxymethyl)-2,2,4-trimethyl-1,2-dihydroquinoline]
- GR Binding ratio (%): ≥ 100%

Structure (SMILES): COc1ccc([N+](=O)[O-])cc1OCc1c(-c2ccc(F)cc2OC)ccc2c1C(C)=CC(C)(C)N2 [Compound 3-61, 6-(4-Fluoro-2-methoxyphenyl)-5-(2-methoxy-5-nitrophenoxymethyl)-2,2,4-trimethyl-1,2-dihydroquinoline]
- GR Binding ratio (%): ≥ 100%

Structure (SMILES): COc1ccc(F)cc1OCc1c(-c2ccc(F)cc2OC)ccc2c1C(C)=CC(C)(C)N2 [Compound 3-67, 5-(5-Fluoro-2-methoxyphenoxymethyl)-6-(4-fluoro-2-methoxyphenyl)-2,2,4-trimethyl-1,2-dihydroquinoline]
- GR Binding ratio (%): ≥ 100%

Structure (SMILES): CCc1ccccc1NCc1c(-c2ccc(F)cc2OC)ccc2c1C(C)=CC(C)(C)N2 [Compound 6-45, 5-(2-Ethylphenylaminomethyl)-6-(4-fluoro-2-methoxyphenyl)-2,2,4-trimethyl-1,2-dihydroquinoline]
- GR Binding ratio (%): 96%

Next, values leading:

- GR Binding ratio (%): ≥ 100%
Structure (SMILES): CCOc1cc(F)ccc1-c1ccc2c(c1COC(=O)c1ccc(C)s1)C(C)=CC(C)(C)N2 [Compound 12-58, 6-(2-Ethoxy-4-fluorophenyl)-5-[(5-methylthiophen-2-yl)carbonyloxymethyl]-2,2,4-trimethyl-1,2-dihydroquinoline]

- GR Binding ratio (%): ≥ 100%
Structure (SMILES): C=CCc1ccccc1OCc1c(-c2cc(F)ccc2OC)ccc2c1C(C)=CC(C)(C)N2 [Compound 14-45, 5-(2-Allylphenoxymethyl)-6-(5-fluoro-2-methoxyphenyl)-2,2,4-trimethyl-1,2-dihydroquinoline]

- GR Binding ratio (%): 99%
Structure (SMILES): COc1ccc(C(F)(F)F)cc1-c1ccc2c(c1COc1cc(F)ccc1C)C(C)=CC(C)(C)N2 [Compound 14-15, 5-(5-Fluoro-2-methylphenoxymethyl)-6-(2-methoxy-5-trifluoromethylphenyl)-2,2,4-trimethyl-1,2-dihydroquinoline]

- GR Binding ratio (%): ≥ 100%
Structure (SMILES): COc1cc(F)ccc1-c1ccc2c(c1COC(=O)c1sccc1Cl)C(C)=CC(C)(C)N2 [Compound 12-17, 5-[(3-Chlorothiophen-2-yl)carbonyloxymethyl]-6-(4-fluoro-2-methoxyphenyl)-2,2,4-trimethyl-1,2-dihydroquinoline]

- GR Binding ratio (%): ≥ 100%
Structure (SMILES): COc1ccc(C(F)(F)F)cc1-c1ccc2c(c1COC(=O)c1ccc(C)s1)C(C)=CC(C)(C)N2 [Compound 12-73, 6-(2-Methoxy-5-trifluoromethylphenyl)-5-(5-methylthiophen-2-ylcarbonyloxymethyl)-2,2,4-trimethyl-1,2-dihydroquinoline]

- GR Binding ratio (%): ≥ 100%
Structure (SMILES): COc1cc(F)ccc1-c1ccc2c(c1COC(=O)c1ccc(C)s1)C(C)=CC(C)(C)N2 [Compound 12-19, 6-(4-Fluoro-2-methoxyphenyl)-5-[(5-methylthiophen-2-yl)carbonyloxymethyl]-2,2,4-trimethyl-1,2-dihydroquinoline]

- GR Binding ratio (%): 99%
Structure (SMILES): C=CCc1ccccc1OCc1c(-c2cc(C)ccc2OC)ccc2c1C(C)=CC(C)(C)N2 [Compound 14-21, 5-(2-Allylphenoxymethyl)-6-(2-methoxy-5-methylphenyl)-2,2,4-trimethyl-1,2-dihydroquinoline]

- GR Binding ratio (%): ≥ 100%
Structure (SMILES): CCc1ccc(C(=O)OCc2c(-c3ccc(F)cc3OC)ccc3c2C(C)=CC(C)(C)N3)s1 [Compound 12-20, 5-[(5-Ethylthiophen-2-yl)carbonyloxymethyl]-6-(4-fluoro-2-methoxyphenyl)-2,2,4-trimethyl-1,2-dihydroquinoline]

- GR Binding ratio (%): ≥ 100%
Structure (SMILES): COc1ccc([N+](=O)[O-])cc1-c1ccc2c(c1COc1cc(F)ccc1C)C(C)=CC(C)(C)N2 [Compound 14-48, 5-(5-Fluoro-2-methylphenoxymethyl)-6-(2-methoxy-5-nitrophenyl)-2,2,4-trimethyl-1,2-dihydroquinoline]
